Test system: GDM-1 (leukemia)
Experiment: MTT tumor cell growth assay
Assay type: cell-based
Settings: GDM-1 (FIG. 3J); 10 μM
Method: In one study, adherent cells were plated approximately 16-24 hours before the day of the experiment in 180 μl growth media. On the day of the experiment, the plated adherent cells were analyzed and counted and suspension cells were plated in 180 μl growth media. 10× lansoprazole compounds and vehicle was prepared. The 10× lansoprazole compounds were prepared by diluting lansoprazole to final concentrations of 100 μM, 30 μM, 10 μM, 3 μM, and 1 μM. A vehicle was prepared by preparing a solution of PBS, equivalent to the volume used for 10 μM lansoprazole wherein the 1× solution constitutes ˜0.06% PBS. 10 μl of the various 10× lansoprazole solutions and the vehicle were added to the cells. The cells were incubated at 37° C., 5% CO2 for 48 hours. The media was then aspirated. The cell suspension was then spun at 1500 RPM for 10 minutes. The media was slowly removed. 200 μl of MTT solution was added to each well with a concentration of 0.863 mg/ml MTT in the growth media. The cells were incubated at 37° C., 5% CO2 for 4 hours and the medium is then aspirated. The plate containing the cell suspension was then spun at 1500 RPM for 10 minutes. The media was slowly removed using a multichannel pipettor. 100 μl of DMSO was then added to each well. The cells were incubated at 37° C., 5% CO2 for 5 minutes and the absorbance was obtained at 560 nm using a Dynex Opsys MR plate reader. The cells used for this procedure were the following cell lines: IGROV1 (ovarian cancer); OVCAR 8 (ovarian cancer); ES-2 (ovarian cancer); CAOV3 (ovarian cancer); OVCAR5 (ovarian cancer); SUDHL4 (lymphoma); RPMI8226 (myeloma); RPMI6666 (Hodgkin's lymphoma); NC37 (lymphoma); GDM-1 (leukemia); MC/CAR (prostate cancer); DU-145 (prostate cancer), J45-01 (leukemia), MOLT3 (leukemia), HUT78, J-gamma-1 (leukemia), MCF7 […], COL0205 (colon cancer), HL60 CLONE 15 (leukemia), T47D (breast cancer), P116 (intestinal cancer), KU812 (leukemia), SW620 (colon cancer), MK92-M1 (lymphoma), MV-4-11 (leukemia), HS578T (breast cancer), HT29 (colon cancer), HCT 116 (colon cancer), CAKI-1 (kidney cancer), A549 (lung cancer), H460 (lung cancer), A3 (colon cancer), MDA-MB231 […], MALME 3M (melanoma), RXF393 (kidney cancer), RS4.11 (leukemia), PC3 (prostate cancer), OVCAR3 (ovarian cancer), MDA-MB435 (melanoma), HUT102 (lymphoma), HL60 (leukemia), CCRF-CEM (leukemia), HUT78 (lymphoma), 786-O (kidney cancer), ACHN (kidney cancer), A498 (kidney cancer), H226 (lung cancer), H522 (lung cancer), HOP92 (lung cancer), SNB 19 (brain cancer), OVCAR4 (ovarian cancer), H9 (lymphoma), UO-31 (kidney cancer), HH (lymphoma), DAUDI (leukemia), LOXIMVI (melanoma), NAMALWA (lymphoma), EKVX (lung cancer), DOHH2 (lymphoma), SNB75 (brain cancer), SKMEL28 (melanoma), SKMEL5 (melanoma), SKMEL2 (melanoma), M14 (melanoma), UACC 257 (melanoma), H332M (lung cancer), KM12 (colon cancer), HCC2998 (colon cancer), G401 (kidney cancer), RS1184 (lymphoma), MC116 (leukemia), MOLT4 (leukemia), JM1 (liver cancer), HOP-62 (lung cancer), HCT-15 (colon cancer), SF-539 (brain cancer), SF295 (brain cancer), ST486 (lymphoma), U251 (brain cancer), and UACC-62 (melanoma).
Experiments, as described in Example I were conducted with lansoprazole, omeprazole and SCH 28080 at concentrations of 1 μM, 10 μM, and 100 μM. FIGS. 3A-3K show the experimental results when tumor cells from the following cell lines were treated with lansoprazole, omeprazole, and SCH 28080: IGROV1 (FIG. 3A), OVCAR8 (FIG. 3B), ES-2 (FIG. 3C), CAOV3 (FIG. 3D), OVCAR5 (FIG. 3E), SUDHL4 (FIG. 3F), RPMI8226 (FIG. 3G), RPMI6666 (FIG. 3H), NC37 (FIG. 3I), GDM-1 (FIG. 3J), and MC/CAR (FIG. 3K).

Structure (SMILES): Cc1nc2c(OCc3ccccc3)cccn2c1CC#N [SCH28080, SCH 28080]
- reducing tumor cell growth: effective in reducing tumor cell growth
